Measured values reported in ChEMBL document CHEMBL1201862, “PubChem BioAssay data set” (2004).
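Following 48 hours of exposure in 96-well plates, responses at five concentrations were used to interpolate endpoints linearly. Here, GI50 denotes the concentration required for 50% inhibition of growth.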 Calls of active or inactive are those of the source. Cut-off read from the data, not from the text of the source: active = GI50 up to about 1.1 µM and inactive = higher.

Assays:
Experiment in all cases: NCI-60 cell line screen, 48 h
A549 = system: A549
CAKI-1 = system: CAKI-1
EKVX = system: EKVX
HCT-116 = system: HCT-116
HOP-62 = system: HOP-62
IGROV-1 = system: IGROV-1
K562 = system: K562
LOX IMVI = system: LOX IMVI
M14 = system: M14
MOLT-4 = system: MOLT-4
NCI-H23 = system: NCI-H23
OVCAR-3 = system: OVCAR-3
RPMI-8226 = system: RPMI-8226
RXF 393 = system: RXF 393
SF-295 = system: SF-295
SN12C = system: SN12C
SNB-19 = system: SNB-19
SK-OV-3 = system: SK-OV-3
SNB-75 = system: SNB-75

Row | SMILES | GI50 (A549) | GI50 (CAKI-1) | GI50 (EKVX) | GI50 (HCT-116) | GI50 (HOP-62) | GI50 (IGROV-1) | GI50 (K562) | GI50 (LOX IMVI) | GI50 (M14) | GI50 (MOLT-4) | GI50 (NCI-H23) | GI50 (OVCAR-3) | GI50 (RPMI-8226) | GI50 (RXF 393) | GI50 (SF-295) | GI50 (SN12C) | GI50 (SNB-19) | GI50 (SK-OV-3) | GI50 (SNB-75)
1 | Cc1cccc(N2C(=O)C3c4[nH]c5ccccc5c4C4CCC(C(C)(C)C)CC4C3C2=O)c1 (centres undefined) | 10.6 µM (inactive) | 13.1 µM (inactive) | 14.4 µM (inactive) | 9.29 µM (inactive) | 3.54 µM (inactive) | 4.13 µM (inactive) | 5.89 µM (inactive) | 3.32 µM (inactive) | 13.3 µM (inactive) | 8.83 µM (inactive) | 16 µM (inactive) | 14 µM (inactive) | 12.7 µM (inactive) | 12.4 µM (inactive) | 9.29 µM (inactive) | 14.2 µM (inactive) | 13.2 µM (inactive) |  | 
2 | FC(F)(F)c1nc(-c2ccccc2Cl)[nH]c1C(F)(F)F | 0.7 µM (active) | 0.679 µM (active) | 0.56 µM (active) | 0.729 µM (active) | 0.394 µM (active) | 1.15 µM (inactive) | 1.03 µM (active) | 0.459 µM (active) | 1.12 µM (inactive) | 0.991 µM (active) | 0.687 µM (active) | 0.223 µM (active) | 2.66 µM (inactive) | 0.798 µM (active) | 0.681 µM (active) | 0.705 µM (active) | 0.571 µM (active) | 0.841 µM (active) | 1.07 µM (active)
3 | CC(C)=NN/C(=N\c1ccc(Cl)cc1)NS(=O)(=O)c1ccc(Oc2cccc(Cl)c2C#N)cc1 | > 100 µM (inactive) | > 100 µM (inactive) | > 100 µM (inactive) | > 100 µM (inactive) | > 100 µM (inactive) | > 100 µM (inactive) | > 100 µM (inactive) | > 100 µM (inactive) | > 100 µM (inactive) | > 100 µM (inactive) | > 100 µM (inactive) | > 100 µM (inactive) | > 100 µM (inactive) |  | > 100 µM (inactive) | > 100 µM (inactive) | > 100 µM (inactive) |  | 
4 | CC(C)CCCC(C)[C@H]1CC[C@H]2n3c(nc4ccccc43)CCC[C@]12C (some centres undefined) | 20.1 µM (inactive) | 17.1 µM (inactive) |  | 12.9 µM (inactive) | 20.7 µM (inactive) | 17 µM (inactive) | 15.6 µM (inactive) | 32.7 µM (inactive) | 16.2 µM (inactive) | 16.1 µM (inactive) | 16.9 µM (inactive) | 17.4 µM (inactive) | 10.8 µM (inactive) | 16.4 µM (inactive) | 16.8 µM (inactive) | 15.9 µM (inactive) | 19.4 µM (inactive) | 17.1 µM (inactive) | 14.6 µM (inactive)
5 | O=c1[nH]cc(COCCCO)c(=O)[nH]1 | > 100 µM (inactive) | > 100 µM (inactive) | > 100 µM (inactive) | > 100 µM (inactive) | > 100 µM (inactive) | > 100 µM (inactive) | > 100 µM (inactive) | > 100 µM (inactive) | > 100 µM (inactive) | > 100 µM (inactive) | 53.5 µM (inactive) | > 100 µM (inactive) | > 100 µM (inactive) | > 100 µM (inactive) | > 100 µM (inactive) | > 100 µM (inactive) | > 100 µM (inactive) | > 100 µM (inactive) | > 100 µM (inactive)
6 | CN(C)CCNc1ccc(NCC[N+](C)(C)Cc2ccc([N+](=O)[O-])cc2)c2c1C(=O)c1ccccc1C2=O | 23.4 µM (inactive) | 3.01 µM (inactive) | > 25 µM (inactive) | 10.9 µM (inactive) | 19.8 µM (inactive) | 14.5 µM (inactive) |  | 15 µM (inactive) | 21.6 µM (inactive) | 9.04 µM (inactive) | 20.2 µM (inactive) | 12 µM (inactive) | 10.8 µM (inactive) | > 25 µM (inactive) | 18.6 µM (inactive) | 5.56 µM (inactive) |  | > 25 µM (inactive) | > 25 µM (inactive)
7 | O=C(CSc1nnc(-c2ccc(/N=C\c3ccc(Cl)cc3)cc2)o1)Nc1ccccc1[N+](=O)[O-] | > 100 µM (inactive) |  | > 100 µM (inactive) | > 100 µM (inactive) | > 100 µM (inactive) |  | > 100 µM (inactive) | > 100 µM (inactive) | > 100 µM (inactive) | > 100 µM (inactive) | > 100 µM (inactive) |  | > 100 µM (inactive) | 94.6 µM (inactive) | > 100 µM (inactive) | > 100 µM (inactive) | > 100 µM (inactive) | > 100 µM (inactive) | > 100 µM (inactive)
8 | CC1CC2C(=O)N(c3ccccc3)C(=O)C2c2c1c1ccccc1n2Cc1ccccc1 (centres undefined) | 32.1 µM (inactive) | > 100 µM (inactive) | > 100 µM (inactive) | 29.3 µM (inactive) | > 100 µM (inactive) | > 100 µM (inactive) | 14.5 µM (inactive) | > 100 µM (inactive) | > 100 µM (inactive) | 58.5 µM (inactive) |  | > 100 µM (inactive) | > 100 µM (inactive) |  | > 100 µM (inactive) | > 100 µM (inactive) |  | > 100 µM (inactive) | 
9 | Cc1ccc(O)c(-c2cc(-c3cccc(Cl)c3)c(C#N)c(N)n2)c1 | 18.9 µM (inactive) | 29.4 µM (inactive) | 14 µM (inactive) | 16.2 µM (inactive) | 20.6 µM (inactive) | 6.93 µM (inactive) | 21.5 µM (inactive) | 16.7 µM (inactive) | 20.9 µM (inactive) | 12.8 µM (inactive) | 25.1 µM (inactive) | 38.5 µM (inactive) | 19.6 µM (inactive) | 19.3 µM (inactive) | 14.8 µM (inactive) | 20.9 µM (inactive) |  | 21.4 µM (inactive) | 
10 | Cc1nn2c3c(nnc2c1C#N)C(=O)NN=C(N)S3 | > 100 µM (inactive) | > 100 µM (inactive) | > 100 µM (inactive) | > 100 µM (inactive) | > 100 µM (inactive) | > 100 µM (inactive) | > 100 µM (inactive) |  | > 100 µM (inactive) | > 100 µM (inactive) | > 100 µM (inactive) | > 100 µM (inactive) | > 100 µM (inactive) | > 100 µM (inactive) | > 100 µM (inactive) | > 100 µM (inactive) | > 100 µM (inactive) | > 100 µM (inactive) | 
11 | O=[N+]([O-])c1ccc(N2C[N+](c3ccccc3)=NC(c3ccccc3)=N2)cc1 | 34.6 µM (inactive) | 63 µM (inactive) |  | 23.3 µM (inactive) | 17.8 µM (inactive) | 41.2 µM (inactive) | 27 µM (inactive) | 26.1 µM (inactive) | 58.1 µM (inactive) | 43.5 µM (inactive) | 34 µM (inactive) | 32.2 µM (inactive) | 39.3 µM (inactive) | 54.5 µM (inactive) | 35.6 µM (inactive) | 46.3 µM (inactive) | 38.6 µM (inactive) | 48.9 µM (inactive) | 99.3 µM (inactive)
